Assay results from patent US12559506B2, “Indazole based compounds and associated methods of use” (Arvinas Operations, Inc., priority 2021, dated 2026).

Molecular target: T1, LRRK2 (endogenous, HiBit tagged) (Homo sapiens, UniProt Q5S007)
T1 construct: endogenous in cells; host or cells: HEK293 cells with HiBit knock-in at the endogenous LRRK2 locus, stably expressing firefly luciferase
Experiment: Endogenous LRRK2 degradation assay, endogenous gene C-terminally HiBit-tagged in HEK293 cells (Nano-Glo Dual Luciferase)
Assay type: cell-based
Conditions: endogenous HiBit-tagged LRRK2, HEK293 cells, 24 hours; for Dmax: read-out: **Endogenous WT Dmax (%); for DC50: read-out: *Endogenous WT DC50
Source text: Exemplary Assay for Testing LRRK2 Degradation Driven by Exemplary Hetero-Bifunctional Compounds Designed to Target LRRK2
The assay measures the degradation of LRRK2 in cells where the C-terminus (3′) of the endogenous gene has been tagged with a HiBit sequence in HEK293 cells. The cells also express firefly luciferase, expressed from a Cytomegalovirus promoter and introduced into the HiBit tagged cells and stably expressed. The Nano-Glo® Dual Luciferase Reporter Assay System (Promega™, Madison, WI) was utilized.
Day 1—Preparation of Compound and Assay Plates. Two sets of plates were prepared: a triplicate set for the HiBit assay in white 384-well plates and a triplicate set of plate in black 384-well plates for the Alamar Blue cell viability assay. Briefly, the growth media (DMEM+Glutamax-10% fetal bovine serum-1% Penicillin-Streptomicin) from two T128 flasks was aspirated from the flasks. Cells were washed with Dulbecco's Phosphate Buffered Saline (dPBS) and aspirated. Trypsin (3 mL per flask) was added and the flasks were incubated for 2-3 minutes.
Ten mL of OptiMEM-10% fetal bovine-1% penicillin-streptomycin (hereinafter, “OptiMEM media”) was added to the flask and the cells and transferred to a 50 mL conical tube. A cell count (25 ul of cell into Effendorf vial+25 ul of Trypan Blue Stain) was performed and the cell density adjusted to 15,000 cell/45 μl/well (3.33×10^5/mL) in OptiMEM media.
Fourty-five microliters of the cell suspension (15,000 cells) was aliquoted to each well of the white 384-well plate. The plates incubated at room temperature for 10 minutes before being placed in the 37° C.+5% CO2 incubator overnight
Day 2—Compound Treatment. Exemplary compounds were prepared at a 1 mM starting concentration and 1:3 serial dilution for 11 points CRC prepared and stored in the freezer. The Master Compound Plate was thawed overnight at room temperature. DMSO (20 μL) was added into column 24 of the Master Compound Plate for negative control and 20 μL of 300 μM of Compound 4 in column 23 as positive control.
Intermediate Compound Plate with 4% DMSO in OptiMEM Media. DMSO was added to warm OptiMEM media to achieve a 4% DMSO solution (approximately 50 mL/plate). One-hundred microliters of the OptiMEM-4% DMSO was aliquoted to each well of 384-Well Deep Well Microplates.
The Master Compound Plate and the Intermediate Compound Plate were spun down.
One microliter of compound from the Master Compound Plate was transferred into the Intermediate plate (a 1:100 dilution). The diluted mixture was mixed and 5 μL transferred into the assay plate (a 1:10 dilution) for the final starting concentration of 1 μM. The Treated Assay plates were incubated for 24 hours at 37° C.+5% CO2. The Master Compound Plate was sealed and store at room temperature for a second run that was performed within a week.
Day 3—HiBit Assay. Five microliters of Alamar Blue was added to each well of the black 384-well plates. The plates were incubated for 2 hours in the incubator (37° C.+5% CO2) and at room temperature for one hour. Fluorescence of each plate was read on a plated reader for the Alamar Blue viability assay.
One set of white assay plates was warmed to room temperature (45 minute).
The One Glo luciferase mixture was prepared. The media from white 384-well assay plates was aspirated. Twenty-five μL of the One Glo luciferase mixture was added to each well of the assay plates. The plates were incubated on the bench (room temperature) for 45 minutes, including 10 minutes of shaking at 700 rpm. The luminescence of each plate was read on a plate reader.
1:100 DLR substrate and 1:100 LgBiT Protein dilution were added to the Promega Stop and Glo buffer and mixed just before addition to assay plates. Twenty-five microliters of Stop and Glo mixture was added to each well. Assay plates incubated for at least 45 minutes, including 10 minutes of shaking at 700 rpm. The luminescence of each plate was read on a plate reader.
Analysis of LRRK2 HiBit Screening assays. […]

T1 sequence (Q5S007 whole entry): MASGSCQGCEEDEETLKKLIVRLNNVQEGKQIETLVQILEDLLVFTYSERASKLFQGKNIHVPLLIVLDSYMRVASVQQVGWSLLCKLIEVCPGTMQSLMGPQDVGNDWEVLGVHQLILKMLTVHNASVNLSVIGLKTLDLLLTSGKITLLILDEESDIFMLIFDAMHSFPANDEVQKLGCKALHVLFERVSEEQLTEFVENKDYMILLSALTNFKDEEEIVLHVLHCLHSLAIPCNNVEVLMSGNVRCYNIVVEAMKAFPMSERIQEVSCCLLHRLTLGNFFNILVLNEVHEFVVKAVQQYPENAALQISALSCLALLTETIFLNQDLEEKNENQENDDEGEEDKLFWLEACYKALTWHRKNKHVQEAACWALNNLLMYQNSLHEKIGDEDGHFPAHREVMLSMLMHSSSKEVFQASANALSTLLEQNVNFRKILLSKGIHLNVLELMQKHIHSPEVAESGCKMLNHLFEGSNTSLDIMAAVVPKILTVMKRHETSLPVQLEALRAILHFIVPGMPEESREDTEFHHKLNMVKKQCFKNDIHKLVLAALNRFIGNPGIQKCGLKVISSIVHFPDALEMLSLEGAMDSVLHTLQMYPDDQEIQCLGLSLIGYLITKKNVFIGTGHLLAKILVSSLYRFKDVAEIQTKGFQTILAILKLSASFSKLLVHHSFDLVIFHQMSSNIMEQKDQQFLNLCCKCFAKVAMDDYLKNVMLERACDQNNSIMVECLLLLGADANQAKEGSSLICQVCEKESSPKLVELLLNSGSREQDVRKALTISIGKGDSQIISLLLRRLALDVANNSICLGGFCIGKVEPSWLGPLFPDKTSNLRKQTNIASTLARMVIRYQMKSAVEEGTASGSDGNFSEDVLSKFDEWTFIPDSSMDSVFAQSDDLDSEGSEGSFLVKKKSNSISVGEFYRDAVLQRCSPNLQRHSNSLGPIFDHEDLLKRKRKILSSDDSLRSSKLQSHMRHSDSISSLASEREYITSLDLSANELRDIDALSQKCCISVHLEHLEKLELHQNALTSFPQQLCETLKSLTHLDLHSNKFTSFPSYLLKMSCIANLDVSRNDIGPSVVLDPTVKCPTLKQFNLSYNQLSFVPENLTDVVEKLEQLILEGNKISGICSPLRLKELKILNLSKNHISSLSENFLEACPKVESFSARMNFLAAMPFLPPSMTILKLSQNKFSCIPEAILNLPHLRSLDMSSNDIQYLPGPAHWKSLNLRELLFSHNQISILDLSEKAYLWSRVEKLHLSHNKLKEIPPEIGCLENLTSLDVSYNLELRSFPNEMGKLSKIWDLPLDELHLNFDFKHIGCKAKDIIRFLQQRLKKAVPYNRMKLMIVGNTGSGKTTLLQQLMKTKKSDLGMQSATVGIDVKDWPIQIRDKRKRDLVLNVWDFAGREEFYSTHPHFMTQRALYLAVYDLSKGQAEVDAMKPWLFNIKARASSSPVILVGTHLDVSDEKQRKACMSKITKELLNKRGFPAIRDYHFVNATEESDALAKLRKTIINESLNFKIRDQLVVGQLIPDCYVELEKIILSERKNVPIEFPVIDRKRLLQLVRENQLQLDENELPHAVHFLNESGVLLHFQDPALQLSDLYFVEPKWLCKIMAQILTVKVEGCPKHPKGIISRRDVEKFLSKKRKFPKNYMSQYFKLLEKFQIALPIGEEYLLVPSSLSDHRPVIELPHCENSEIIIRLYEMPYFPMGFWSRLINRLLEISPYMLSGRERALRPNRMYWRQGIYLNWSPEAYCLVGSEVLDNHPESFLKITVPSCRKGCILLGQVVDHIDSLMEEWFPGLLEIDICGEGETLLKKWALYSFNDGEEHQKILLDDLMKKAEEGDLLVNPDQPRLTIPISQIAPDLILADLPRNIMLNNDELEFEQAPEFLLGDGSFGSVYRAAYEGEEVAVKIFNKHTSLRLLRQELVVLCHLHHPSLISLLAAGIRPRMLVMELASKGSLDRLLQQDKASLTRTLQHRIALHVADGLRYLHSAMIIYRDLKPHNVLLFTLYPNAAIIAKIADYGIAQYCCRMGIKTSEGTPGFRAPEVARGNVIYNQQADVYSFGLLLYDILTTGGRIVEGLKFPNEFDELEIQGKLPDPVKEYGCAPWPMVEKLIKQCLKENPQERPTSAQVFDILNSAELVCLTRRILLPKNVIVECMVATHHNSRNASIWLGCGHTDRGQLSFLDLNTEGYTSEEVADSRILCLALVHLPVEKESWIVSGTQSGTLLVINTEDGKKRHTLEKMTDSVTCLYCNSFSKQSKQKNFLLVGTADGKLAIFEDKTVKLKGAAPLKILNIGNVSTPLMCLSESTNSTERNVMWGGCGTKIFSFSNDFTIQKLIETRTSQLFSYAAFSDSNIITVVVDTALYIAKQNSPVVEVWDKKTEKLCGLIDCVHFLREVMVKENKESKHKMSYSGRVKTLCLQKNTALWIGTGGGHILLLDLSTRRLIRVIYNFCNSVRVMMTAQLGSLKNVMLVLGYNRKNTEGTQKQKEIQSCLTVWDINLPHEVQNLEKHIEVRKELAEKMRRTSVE

Row | SMILES | Dmax [%] | DC50 [µM]
1 | CC1(Oc2ccc3[nH]nc(-c4cc(N5CCC(CN6CCN(CC7CCN(c8cc9c(cc8F)C(=O)N(C8CCC(=O)NC8=O)C9)CC7)CC6)CC5)ncn4)c3c2)CC1 (stereo not shown) [Compound 180, 3-[6-fluoro-5-[4-[[4-[[1-[6-[5-(1-methylcyclopropoxy)-1H-indazol-3-yl]pyrimidin-4-yl]-4-piperidyl]methyl]piperazin-1-yl]methyl]-1-piperidyl]-1-oxo-isoindolin-2-yl]piperidine-2,6-dione] | ≥ 70 | < 0.01
2 | CC1(Oc2ccc3[nH]nc(-c4cc(N5CCC(CN6CCN(CC7CCN(c8ccc9c(c8F)CN(C8CCC(=O)NC8=O)C9=O)CC7)CC6)CC5)ncn4)c3c2)CC1 (stereo not shown) [Compound 181, 3-[4-fluoro-5-[4-[[4-[[1-[6-[5-(1-methylcyclopropoxy)-1H-indazol-3-yl]pyrimidin-4-yl]-4-piperidyl]methyl]piperazin-1-yl]methyl]-1-piperidyl]-1-oxo-isoindolin-2-yl]piperidine-2,6-dione] | ≥ 70 | < 0.01
3 | CC1(Oc2ccc3[nH]nc(-c4cc(N5CCN(CC6(F)CCN(CC7CCN(c8ccc9c(c8F)CN(C8CCC(=O)NC8=O)C9=O)CC7)CC6)CC5)ncn4)c3c2)CC1 (stereo not shown) [Compound 182, 3-[4-fluoro-5-[4-[[4-fluoro-4-[[4-[6-[5-(1-methylcyclopropoxy)-1H-indazol-3-yl]pyrimidin-4-yl]piperazin-1-yl]methyl]-1-piperidyl]methyl]-1-piperidyl]-1-oxo-isoindolin-2-yl]piperidine-2,6-dione] | ≥ 70 | < 0.01
4 | CC1(Oc2ccc3n[nH]c(-c4cc(N5CCN(CC6(F)CCN(CC7CCN(c8cc9c(cc8F)C(=O)N(C8CCC(=O)NC8=O)C9)CC7)CC6)CC5)ncn4)c3c2)CC1 (stereo not shown) [Compound 183, 3-[6-fluoro-5-[4-[[4-fluoro-4-[[4-[6-[5-(1-methylcyclopropoxy)-2H-indazol-3-yl]pyrimidin-4-yl]piperazin-1-yl]methyl]-1-piperidyl]methyl]-1-piperidyl]-1-oxo-isoindolin-2-yl]piperidine-2,6-dione] | ≥ 70 | < 0.01
5 | C[C@H]1CN(c2cc(-c3[nH]nc4ccc(OC5(C)CC5)cc34)ncn2)CCN1CCN1CCC(CN2CCN(c3ccc4c(c3F)CN(C3CCC(=O)NC3=O)C4=O)CC2)CC1 (stereo partly drawn) [Compound 184, 3-[4-fluoro-5-[4-[[1-[2-[(2S)-2-methyl-4-[6-[5-(1-methylcyclopropoxy)-2H-indazol-3-yl]pyrimidin-4-yl]piperazin-1-yl]ethyl]-4-piperidyl]methyl]piperazin-1-yl]-1-oxo-isoindolin-2-yl]piperidine-2,6-dione] | ≥ 70 | < 0.01
6 | CC1(Oc2cc3c(-c4cc(N5CCC(CN6CCN(CC7CCN(c8ccc9c(c8F)CN(C8CCC(=O)NC8=O)C9=O)CC7)CC6)CC5)ncn4)n[nH]c3cc2F)CC1 (stereo not shown) [Compound 186, 3-[4-fluoro-5-[4-[[4-[[1-[6-[6-fluoro-5-(1-methylcyclopropoxy)-1H-indazol-3-yl]pyrimidin-4-yl]-4-piperidyl]methyl]piperazin-1-yl]methyl]-1-piperidyl]-1-oxo-isoindolin-2-yl]piperidine-2,6-dione] | ≥ 70 | < 0.01
7 | C[C@H]1CN(c2cc(-c3n[nH]c4ccc(OC5(C)CC5)cc34)ncn2)CCN1CC1(F)CCN(CC2CCN(c3ccc4c(c3F)CN(C3CCC(=O)NC3=O)C4=O)CC2)CC1 (stereo partly drawn) [Compound 187, 3-[4-fluoro-5-[4-[[4-fluoro-4-[[(2S)-2-methyl-4-[6-[5-(1-methylcyclopropoxy)-1H-indazol-3-yl]pyrimidin-4-yl]piperazin-1-yl]methyl]-1-piperidyl]methyl]-1-piperidyl]-1-oxo-isoindolin-2-yl]piperidine-2,6-dione] | ≥ 70 | < 0.01
8 | CC1(Oc2ccc3[nH]nc(-c4cc(N5CCC(CN6CCC(F)(CN7CCN(c8cc9c(cc8F)C(=O)N(C8CCC(=O)NC8=O)C9)CC7)CC6)CC5)ncn4)c3c2)CC1 (stereo not shown) [Compound 188, 3-[6-fluoro-5-[4-[[4-fluoro-1-[[1-[6-[5-(1-methylcyclopropoxy)-1H-indazol-3-yl]pyrimidin-4-yl]-4-piperidyl]methyl]-4-piperidyl]methyl]piperazin-1-yl]-1-oxo-isoindolin-2-yl]piperidine-2,6-dione] | ≥ 70 | < 0.01
9 | CC1(Oc2cc3c(-c4cc(N5CCN(CC6(F)CCN(CC7CCN(c8ccc9c(c8F)CN(C8CCC(=O)NC8=O)C9=O)CC7)CC6)CC5)ncn4)n[nH]c3cc2F)CC1 (stereo not shown) [Compound 189, 3-[4-fluoro-5-[4-[[4-fluoro-4-[[4-[6-[6-fluoro-5-(1-methylcyclopropoxy)-1H-indazol-3-yl]pyrimidin-4-yl]piperazin-1-yl]methyl]-1-piperidyl]methyl]-1-piperidyl]-1-oxo-isoindolin-2-yl]piperidine-2,6-dione] | ≥ 70 | < 0.01
10 | CC1(Oc2ccc3[nH]nc(-c4cc(N5CCC(CN6CCC(F)(CN7CCN(c8ccc9c(c8F)CN(C8CCC(=O)NC8=O)C9=O)CC7)CC6)CC5)ncn4)c3c2)CC1 (stereo not shown) [Compound 190, 3-[4-fluoro-5-[4-[[4-fluoro-1-[[1-[6-[5-(1-methylcyclopropoxy)-1H-indazol-3-yl]pyrimidin-4-yl]-4-piperidyl]methyl]-4-piperidyl]methyl]piperazin-1-yl]-1-oxo-isoindolin-2-yl]piperidine-2,6-dione] | ≥ 70 | < 0.01
11 | CC1(Oc2cc3c(-c4cc(N5CCC(CN6CCN(CC7CCN(c8cc9c(cc8F)C(=O)N(C8CCC(=O)NC8=O)C9)CC7)CC6)CC5)ncn4)n[nH]c3cn2)CC1 (stereo not shown) [Compound 191, 3-[6-fluoro-5-[4-[[4-[[1-[6-[5-(1-methylcyclopropoxy)-1H-pyrazolo[3,4-c]pyridin-3-yl]pyrimidin-4-yl]-4-piperidyl]methyl]piperazin-1-yl]methyl]-1-piperidyl]-1-oxo-isoindolin-2-yl]piperidine-2,6-dione] | ≥ 70 | < 0.01
12 | C[C@H]1CN(c2cc(-c3n[nH]c4cc(F)c(OC5(C)CC5)cc34)ncn2)CCN1CC1(F)CCN(CC2CCN(c3ccc4c(c3F)CN(C3CCC(=O)NC3=O)C4=O)CC2)CC1 (stereo partly drawn) [Compound 192, 3-[4-fluoro-5-[4-[[4-fluoro-4-[[(2S)-4-[6-[6-fluoro-5-(1-methylcyclopropoxy)-1H-indazol-3-yl]pyrimidin-4-yl]-2-methyl-piperazin-1-yl]methyl]-1-piperidyl]methyl]-1-piperidyl]-1-oxo-isoindolin-2-yl]piperidine-2,6-dione] | ≥ 70 | < 0.01
13 | CC1(Oc2cc3c(-c4cc(N5CCC(CN6CCC(F)(CN7CCN(c8cc9c(cc8F)C(=O)N(C8CCC(=O)NC8=O)C9)CC7)CC6)CC5)ncn4)[nH]nc3cc2F)CC1 (stereo not shown) [Compound 193, 3-[6-fluoro-5-[4-[[4-fluoro-1-[[1-[6-[6-fluoro-5-(1-methylcyclopropoxy)-2H-indazol-3-yl]pyrimidin-4-yl]-4-piperidyl]methyl]-4-piperidyl]methyl]piperazin-1-yl]-1-oxo-isoindolin-2-yl]piperidine-2,6-dione] | ≥ 70 | < 0.01
14 | COc1cc2c(cc1N1CCC(CN3CCN(CC4CCN(c5cc(-c6n[nH]c7ccc(OC8(C)CC8)cc67)ncn5)CC4)CC3)CC1)CN(C1CCC(=O)NC1=O)C2=O (stereo not shown) [Compound 194, 3-[6-methoxy-5-[4-[[4-[[1-[6-[5-(1-methylcyclopropoxy)-1H-indazol-3-yl]pyrimidin-4-yl]-4-piperidyl]methyl]piperazin-1-yl]methyl]-1-piperidyl]-1-oxo-isoindolin-2-yl]piperidine-2,6-dione] | ≥ 70 | < 0.01
